Laboratory results taken from US8574831B2, “Mutational profiles in HIV-1 reverse transcriptase correlated with phenotypic drug resistance” (Virco N.V., priority 2000, dated 2013).

Test system: HIV with mutations in the HIV protease sequence
Experiment: Phenotypic fold resistance to protease inhibitors, protease mutations 84A/84L/84C/54M/54L/54V in a background (Examples 8-13)
Assay type: cell-based, HIV-1
Method: As is the case with the genotyping assays, the recombinant virus assay starts with the amplification of viral target sequences by means of PCR. The amplicons are incorporated into a proviral laboratory clone with sequences homologous to those present in the amplicon deleted. This generates a stock of chimeric viruses. The viruses are tested for their ability to grow in the presence of different concentrations of drugs. Results are obtained by calculating IC50 values for each inhibitor and by reporting the results as IC50 values, expressed in μM concentrations, or by computing the ratio of the IC50 values found for the chimeric virus to the IC50 values found for a wild type susceptible laboratory virus tested in parallel. In the latter case, resistance is expressed as “fold-resistance” compared to a wild-type susceptible HIV-1 strain. In order to meet the need for high-volume testing and a short turn-around time for an individual test, the latest generation of phenotyping assays has undergone further modifications. The use of reporter gene systems for susceptibility testing allows the implementation of laboratory automation and standardization. See Pauwels, et al., J. Virol. Methods 20, 309-321 (1998); Paulous, S., et al., International Workshop on HIV Drug Resistance, Treatment Strategies and Eradication, St. Petersburg, Fla., USA. Abstr. 46 (1997); and Deeks, S. G., et al., 2nd International Workshop on HIV Drug Resistance and Treatment Strategies, Lake Maggiore, Italy. Abstr. 53 (1998).
The ANTIVIROGRAM® assay (Virco) (WO 97/27480) is based on homologous recombination of patient derived HIV-1 gag/PR/RT sequences into a proviral HIV-1 clone correspondingly deleted for the gag/PR/RT sequences. See Pauwels, et al., J. Virol. Methods 20, 309-321 (1998). A similar assay (Phenosense ViroLogic) is based on enzymatic ligation of patient-derived PR/RT sequences into a correspondingly deleted proviral vector carrying an indicator gene, luciferase, inserted in the deleted HIV-1 envelope gene. See Deeks, S. G., et al., 2nd International Workshop on HIV Drug Resistance and Treatment Strategies, Lake Maggiore, Italy. Abstr. 53 (1998). Hertogs et al. Antimicrob. Agents Chemother. 44(3) 568-573 (2000) the disclosures of which are herein incorporated by reference.
The methods of monitoring HIV-1 drug resistance, may also be used in combination with phenotypic drug resistance testing of viral isolates. For example, in one embodiment, a phenotypic test is utilized that is based upon the construction of chimeric HIV-1 strains composed of the protease (PR) and reverse transcriptase (RT) gene sequences which are isolated and amplified from the patient viral RNA. These strains may subsequently be recombined inside CD4+ T cells with a standard laboratory isogenic (HXB2) HIV-1 DNA construct from which the PR/RT gene sequences were deleted. The recombinant strains may then be grown in the presence of the above-mentioned antiviral drugs and the susceptibility of the viral isolates may be expressed as fold-change value of the IC50 of the drug on the patient isolates over the IC50 of the drug on a wild-type laboratory reference strain.

## CC(C)CN(C[C@@H](O)[C@H](Cc1ccccc1)NC(=O)O[C@H]1CCOC1)S(=O)(=O)c1ccc(N)cc1 [Amprenavir, amprenavir]
Table 9 #1, protease genotype WT
  mean fold increase in resistance: 1 fold
Table 9 #2, protease genotype 10I
  mean fold increase in resistance: 1.1 fold
Table 9 #3, protease genotype 46I
  mean fold increase in resistance: 1.2 fold
Table 9 #4, protease genotype 46I + 84V
  mean fold increase in resistance: 2.3 fold
Table 9 #5, protease genotype 46I + 84A
  mean fold increase in resistance: 7.7 fold
Table 9 #6, protease genotype 10I + 46I
  mean fold increase in resistance: 5.6 fold
Table 9 #7, protease genotype 10I + 46I + 84V
  mean fold increase in resistance: 4.5 fold
Table 9 #8, protease genotype 10I + 46I + 84A
  mean fold increase in resistance: 17 fold
Table 9 #9, protease genotype 10L/I + 46I + 84A
  mean fold increase in resistance: 24.9 fold
Table 9 #10, protease genotype 10I + 46I + 84A
  mean fold increase in resistance: 11 fold
Table 9 #11, protease genotype 46I + 71V
  mean fold increase in resistance: 2.2 fold
Table 9 #12, protease genotype 46I + 71V + 84V/I
  mean fold increase in resistance: 2.2 fold
Table 9 #13, protease genotype 46I + 71V + 84A
  mean fold increase in resistance: 23 fold
Table 9 #14, protease genotype 10F + 46I + 71V
  mean fold increase in resistance: 4.2 fold
Table 9 #15, protease genotype 10I + 46I + 71V + 84V
  mean fold increase in resistance: 17.8 fold
Table 9 #16, protease genotype 10I + 46I + 71V + 84A
  mean fold increase in resistance: 15.2 fold
Table 9 #17, protease genotype 10V + 46I + 71T + 84A
  mean fold increase in resistance: 39.8 fold
Table 9 #18, protease genotype 10I + 46I + 71V + 77I
  mean fold increase in resistance: 0.9 fold
Table 9 #19, protease genotype 10I + 46I + 71V + 77I + 84V
  mean fold increase in resistance: 1.4 fold
Table 9 #20, protease genotype 10I + 46I + 71V + 77I + 84A
  mean fold increase in resistance: 15 fold
Table 9 #21, protease genotype 10I + 33L/I + 46I + 71V + 77V/I + 84A
  mean fold increase in resistance: 10.9 fold
Table 10 #1, protease genotype 10I + 36I + 71V
  mean fold increase in resistance: 1.0 fold
Table 10 #2, protease genotype 10I + 36I + 71I + 84V
  mean fold increase in resistance: 1.1 fold
Table 10 #3, protease genotype 10I + 36I + 71I + 84L
  mean fold increase in resistance: 0.3 fold
Table 11 #1, protease genotype WT
  mean fold increase in resistance: 1.0 fold
Table 11 #2, protease genotype 84V
  mean fold increase in resistance: 2.0 fold
Table 11 #3, protease genotype 84C
  mean fold increase in resistance: 5.9 fold
Table 11 #4, protease genotype 10I
  mean fold increase in resistance: 1.1 fold
Table 11 #5, protease genotype 10I + 84V
  mean fold increase in resistance: 1.2 fold
Table 11 #6, protease genotype 10I + 84C
  mean fold increase in resistance: 3.4 fold
Table 11 #7, protease genotype 77I
  mean fold increase in resistance: 0.6 fold
Table 11 #8, protease genotype 77I + 84V
  mean fold increase in resistance: 3.3 fold
Table 11 #9, protease genotype 77I + 84C
  mean fold increase in resistance: 2.2 fold
Table 11 #10, protease genotype 77I + 84C
  mean fold increase in resistance: 4.9 fold
Table 11 #11, protease genotype 10I + 24I + 36I + 46I + 71V + 84C
  mean fold increase in resistance: 12.8 fold
Table 12, V19263, genotype 77I
  Fold change in IC50: 0.6 fold
Table 12, V20160, genotype WT
  Fold change in IC50: 1.0 fold
Table 12, V021667, genotype 10I
  Fold change in IC50: 1.1 fold
Table 12, V030496, genotype 10I + 77I
  Fold change in IC50: 0.5 fold
Table 12, V048869, genotype 10I + 54M + 77I + 90M
  Fold change in IC50: 9.3 fold
Table 12, V048872, genotype 33F + 54M + 77I + 90M
  Fold change in IC50: 30.3 fold
Table 12, V048873, genotype 33F + 54M + 77I + 90M
  Fold change in IC50: 37.5 fold
Table 12, V048877, genotype 10I + 33F + 77I + 90M
  Fold change in IC50: 7.9 fold
Table 12, V048878, genotype 10I + 33F + 54M + 71V + 77I + 90M
  Fold change in IC50: 13.7 fold
Table 12, V048879, genotype 10I + 33F + 54M + 71V + 77I + 90M
  Fold change in IC50: 14.1 fold
Table 12, V048880, genotype 10I + 33F + 77I + 90M
  Fold change in IC50: 3.8 fold
Table 12, V052940, genotype 71V
  Fold change in IC50: 0.3 fold
Table 12, V052942, genotype 10I + 71V
  Fold change in IC50: 0.5 fold
Table 12, V052943, genotype 10I + 90M
  Fold change in IC50: 0.4 fold
Table 12, V052944, genotype 10I + 90M
  Fold change in IC50: 0.7 fold
Table 12, V052945, genotype 77I + 90M
  Fold change in IC50: 0.3 fold
Table 12, V052946, genotype 71V + 90M
  Fold change in IC50: 0.5 fold
Table 12, V052947, genotype 10I + 77I + 90M
  Fold change in IC50: 1.2 fold
Table 12, V052948, genotype 10I + 71V + 90M
  Fold change in IC50: 2.0 fold
Table 12, V052949, genotype 10I + 71V + 77I + 90M
  Fold change in IC50: 0.6 fold
Table 12, V052950, genotype 33F
  Fold change in IC50: 0.7 fold
Table 12, V052951, genotype 33F + 77I
  Fold change in IC50: 0.3 fold
Table 12, V052953, genotype 10I + 33F + 77I
  Fold change in IC50: 1.5 fold
Table 12, V052954, genotype 33F + 77I + 90M
  Fold change in IC50: 2.1 fold
Table 12, V052955, genotype 33F + 71V + 90M
  Fold change in IC50: 2.7 fold
Table 12, V052977, genotype 10I + 33F + 54M
  Fold change in IC50: 12.2 fold
Table 12, V052978, genotype 10I + 33F + 54M + 71V + 90M
  Fold change in IC50: 19.3 fold
Table 12, V052979, genotype 10I + 54M
  Fold change in IC50: 10.4 fold
Table 12, V052980, genotype 10I + 54M + 90M
  Fold change in IC50: 1.4 fold
Table 12, V052981, genotype 10I + 54M + 71V + 90M
  Fold change in IC50: 8.9 fold
Table 12, V052982, genotype 10I + 54M + 71V + 77I + 90M
  Fold change in IC50: 3.1 fold
Table 12, V053832, genotype 10I + 33F
  Fold change in IC50: 0.6 fold
